In patent US7662851B2, “Use of specific cyklolignans” (Axelar AB, priority 2001, dated 2010):
Like-named read-outs stand apart in the source and are kept apart here.

Assays:
[1] = test system: insulin substrate-1 (IRS-1); assay: Phosphorylation of IRS-1 in intact FM55 melanoma cells; format: cell-based; conditions: 0.05 μM, 1 h
Protocol: (§1) Cells were cultured to subconfluency in 6-cm plates, and then fresh medium containing 10% FBS and the desired compounds were added for 1 h. The cells were then lyzed and subjected to immunoprecipitation using specific antibodies. Immunoprecipitates were resolved by sodium dodecyl sulphate polyacrylamide gel electrophoresis (SDS-PAGE) and transferred to nitro-cellulose membranes and incubated with anti-phosphotyrosine antibody. Antibodies to actin (in cell extract) or IGF-1R beta subunit were used as loading controls. After detection the films were scanned for quantification.
FM55 melanoma cells were cultured in the same way as described in Experiment 1. When reaching a density of 65,000 cells/cm^2 in the dishes, they were treated for 1 h with 0 (control) and 0.05 μM of picropodophyllin and podophyllotoxin, respectively. The cells were then isolated and subjected to immunoprecipitation of the IGF-1R, fibroblast growth factor receptor (FGFR), platelet-derived growth factor receptor (PDGFR), epidermal growth factor receptor (EGFR), insulin receptor (IR) and insulin substrate-1 (IRS-1) using antibodies to respective molecules. IRS-1 is a substrate of IGF-1R, and therefore its phosphorylation is dependent on phosphorylated IGF-1R. Gelelectrophoresis, Western blotting and quantification of the different signals were performed as described above.

[2] = test system: SK-MEL-5 melanoma cell line; assay: Cell viability (XTT), SK-MEL-5; format: cell-based
Protocol: (§2) Cell proliferation kit II (Roche Inc.) is based on colorimetric change of the yellow tetrazolium salt XTT in orange formazan dye by the respiratory chain of viable cells (Roehm, N W, et al., J Immunol Methods 142:257-265, 1991). Cells seeded at a concentration of 5000/well in 100 μl medium in a 96-well plate were treated with different drugs in the given concentration. After 24 or 48 h the cells were incubated, according to the manufacturer's protocol, with XTT labelling mixture. After 4 h the formazan dye is quantified using a scanning multiwell spectrophotometer with a 495-nm filter. The absorbance is directly correlated with the number of viable cells. The standard absorbance curve was drawn by means of untreated cells seeded at a concentration of from 1000 to 10 000 cells/well with an increasing rate of 1000 cells/well. All standards and experiments were performed in triplicates.
(§3) 12 different types of cell lines were seeded in 96-well plates (medium volume in a well was 100 μl), at a concentration of 10,000 cells/cm^2 in Minimal Essential Medium supplemented with fetal calf serum. When the cells had reached a concentration of 65,000 cells/cm^2, they were treated with different doses of podophyllotoxin and picropodophyllin for 48 h. Cell viability was then assayed (see above). […]

[3] = biological target: IGF-1R (Homo sapiens, UniProt P08069); assay: IGF-1R phosphorylation in various malignant cell types (EC50); format: cell-based; design: endogenous in cells; host or cells: 12 malignant cell lines (e.g. SK-MEL-2, SK-MEL-5, SK-MEL-28); conditions: 1 h
Chain of IGF-1R (P08069 31-1367): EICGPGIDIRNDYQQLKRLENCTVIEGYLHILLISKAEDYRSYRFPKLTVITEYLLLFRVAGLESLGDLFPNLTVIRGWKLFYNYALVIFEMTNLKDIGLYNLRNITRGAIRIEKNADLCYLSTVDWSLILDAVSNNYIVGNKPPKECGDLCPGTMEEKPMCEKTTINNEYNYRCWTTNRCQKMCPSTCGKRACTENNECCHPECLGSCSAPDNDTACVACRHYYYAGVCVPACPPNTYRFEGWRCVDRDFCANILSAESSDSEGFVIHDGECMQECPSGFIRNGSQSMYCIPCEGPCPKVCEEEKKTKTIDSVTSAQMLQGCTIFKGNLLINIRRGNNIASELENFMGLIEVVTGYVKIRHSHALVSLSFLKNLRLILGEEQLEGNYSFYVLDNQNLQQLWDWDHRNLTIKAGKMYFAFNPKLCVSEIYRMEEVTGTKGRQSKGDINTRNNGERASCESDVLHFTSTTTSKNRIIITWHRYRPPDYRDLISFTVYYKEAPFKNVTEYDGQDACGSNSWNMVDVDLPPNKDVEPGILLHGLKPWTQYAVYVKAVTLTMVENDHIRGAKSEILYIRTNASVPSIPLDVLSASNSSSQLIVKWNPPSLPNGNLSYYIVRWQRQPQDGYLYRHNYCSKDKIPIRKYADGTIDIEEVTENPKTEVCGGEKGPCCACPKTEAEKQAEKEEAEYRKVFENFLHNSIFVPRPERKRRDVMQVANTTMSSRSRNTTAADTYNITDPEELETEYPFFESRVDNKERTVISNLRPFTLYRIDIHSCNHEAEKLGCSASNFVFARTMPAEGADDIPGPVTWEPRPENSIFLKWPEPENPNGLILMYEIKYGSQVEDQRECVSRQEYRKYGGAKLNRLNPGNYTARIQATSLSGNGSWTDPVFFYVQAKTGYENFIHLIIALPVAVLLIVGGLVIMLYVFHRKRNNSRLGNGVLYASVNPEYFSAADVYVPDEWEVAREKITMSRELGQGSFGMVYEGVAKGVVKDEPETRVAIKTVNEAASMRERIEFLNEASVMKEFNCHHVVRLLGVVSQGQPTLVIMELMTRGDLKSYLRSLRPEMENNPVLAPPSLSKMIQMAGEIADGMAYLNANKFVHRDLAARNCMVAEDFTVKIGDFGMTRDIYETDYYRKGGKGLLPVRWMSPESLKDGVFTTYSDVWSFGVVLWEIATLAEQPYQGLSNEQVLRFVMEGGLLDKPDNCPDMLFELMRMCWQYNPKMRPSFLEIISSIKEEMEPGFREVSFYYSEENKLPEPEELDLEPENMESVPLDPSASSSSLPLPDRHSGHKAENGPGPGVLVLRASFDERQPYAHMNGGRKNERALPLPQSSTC
Protocol: as §1
12 cell lines of different origins were seeded in 6-cm dishes, at a concentration of 10,000 cells/cm^2 in Minimal Essential Medium supplemented with fetal calf serum (FCS). When the cells had reached a concentration of 65,000 cells/cm^2, they were treated with 0, 0.01, 0.025, 0.05, 0.1 or 1.0 uM doses of podophyllotoxin and picropodophyllin for 1 h. The cells were then harvested for assay and quantification of IGF-1R phosphorylation as described above. The EC50 value, the Efficient Concentration 50%, i.e. the concentration needed to reduce the phosphorylation with 50%, for each inhibitor and cell line, is then calculated. The results are based on two different experiments.

[4] = test system: R- cells (IGF-1R negative fibroblasts); assay: Cell viability (XTT), R-; format: cell-based, murine; conditions: Mus musculus, Fibroblast, 48 h, read-out: EC50 for cell viability
Protocol: as §2, §3

[5] = P6 fibroblasts with overexpressed IGF-1R

| SMILES | Level of phosphorylation in intact cells, substrate IRS-1 [1] | EC50 ([2]; Homo sapiens, SK-MEL-5, 48 h; read-out: EC50 for cell viability) | EC50 ([3]; FM55 melanoma) | EC50 ([3]; MCF-7 breast cancer) | EC50 [3, 5] | EC50 ([3]; PC-3 prostate cancer) | EC50 ([3]; RD-ES Ewing's sarcoma) | EC50 ([3]; SK-MEL-5 melanoma) | EC50 ([3]; SK-MEL-28 melanoma) | EC50 ([4]; R- (IGF-1R negative fibroblasts)) | EC50 ([2]; Homo sapiens, SK-MEL-5, 48 h, read-out: EC50 for cell viability) | EC50 ([3]; BE melanoma) | EC50 ([3]; DWB melanoma) | EC50 ([3]; SK-MEL-2 melanoma) | EC50 [4] |
| --- | --- | --- | --- | --- | --- | --- | --- | --- | --- | --- | --- | --- | --- | --- | --- |
| COc1cc([C@@H]2c3cc4c(cc3[C@H](O)[C@H]3COC(=O)[C@@H]23)OCO4)cc(OC)c1OC [Picropodophyllin, picropodophyllin] | 17 % OD | 50 nM | 60 nM | 40 nM | 30 nM | 90 nM | 50 nM | 40 nM | 40 nM | > 15000 nM | – | – | – | – | – |
| COc1cc([C@@H]2c3cc4c(cc3[C@H](O)[C@H]3COC(=O)[C@H]23)OCO4)cc(OC)c1OC [Podophyllotoxin, podophyllotoxin] | 10 % OD | – | 40 nM | 50 nM | 20 nM | 60 nM | 30 nM | 30 nM | 30 nM | – | 20 nM | 40 nM | 30 nM | 40 nM | > 15000 nM |
